Here are results for 1 substance from patent US8598118B2, “Hepatocyte growth factor mimics as therapeutic agents” (Washington State University, priority 2011, dated 2013).

The test system of the assay is CA1 hippocampal neurons. The assay can be described thus: Spinogenesis in organotypic hippocampal slice cultures. In kind it is cell-based, rat. Particulars: HGF 10 ng/ml, 48 hours, organotypic slices. As for the experimental part:
(§1) Hippocampi from P4 Sprague Dawley rats were cultured as previously described (Wayman, Impey et al. 2006). Briefly, 400 μm slices were cultured on (Milipore, Billerica, Mass.) for 3 days after which they were biolistically transfected with tomato fluorescent protein (TFP) using a Helios Gen Gun (BioRad, Hercules, Calif.), according to the manufacturer's protocol, to visualize dendritic arbors. Following a 24 hour recovery period slices were stimulated with vehicle (H2O), 1 pM Nle1-AngIV or Dihexa for 2 days. Slices were fixed and mounted. Hippocampal CA1 neuronal processes were imaged and measured as described above.
as §1, with “Gene” for “Gen”, “with” for “with vehicle (H2O),”

For the substance “HGF: carrier free adult recombinant Hepatocyte Growth Factor (R and D Systems)”, the “number of spines per 50 μm dendrite length, CA1 neurons” value turned out to be 18.5.
